In brackets after ≈: the same amount, converted by molar mass.
Legend:
[1] = system: M. tuberculosis H37Rv (ATCC 27294); assay: MIC by broth dilution method, M. tuberculosis H37Rv; format: cell-based; conditions: Mycobacterium tuberculosis, 504 h, broth dilution, 3 weeks; read-out: MIC M. tb H37Rv
[2] = system: macrophage J774 cells line; assay: Cytotoxicity assay (MTT) in macrophage J774 cells; format: cell-based; conditions: J774 cells, 24 hrs, MTT
Description: The study was carried out using macrophage J774 cells line (ATCC-USA). Cells were grown in Rosewell Park Memorial Institute Medium (RPMI) containing 10% fetal calf serum (FCS) and supplemented with 75 mg/liter penicillin, 100 mg/liter streptomycin, 110 mg/liter Sodium pyruvate, 2.38 gm/liter HEPES, 0.05 mM 2 β-mercaptoethanol, and 2 gm/liter NaHCO3, in a humidified atmosphere in 5% CO2 at 37° C., and were sub-cultured at 1:4 ratio once a week.
Cells were plated at a density of 3×10^4 cells/cm^2 and maintained in culture medium for 12 hours. Cells were seeded onto 96-well flat bottom plates and FCS was reduced to 5% for the experiment. Stock solutions of compounds IA1 to IIC10 were prepared fresh to avoid oxidation. Cells were incubated with the compounds (40 μg/ml) for 24 hrs.
After the completion of incubation, the medium was removed and cell viability was evaluated by assaying for the ability of functional mitochondria to catalyze the reduction of 3-(4,5-dimethylthiazol-2-yl)-2,5-diphenyltetrazolium bromide (MTT) to form formazan salt by mitochondrial dehydrogenases, and determined by Elisa reader at 450 nm (Multiskan Spectrum; Thermo Electron Corporation, USA). Percentage cytotoxicity was calculated with respect to the untreated cells.

Compound	MIC [1] [µg/mL]	Cytotoxicity [2] [µg/mL]
C[C@]1(COc2ccc(-n3cc(-c4ccccc4F)nn3)cc2)Cn2cc([N+](=O)[O-])nc2O1 [IA4, (R)-2-{4-[4-(2-fluorophenyl)-1H-1,2,3-triazol-1-yl]phenoxymethyl}-2,3-dihydro-2-methyl-6-nitroimidazo[2,1-b]oxazole]	1 (≈ 2.29 µM)	>40
C[C@]1(COc2ccc(-n3cc(-c4ccc(F)cc4F)nn3)cc2)Cn2cc([N+](=O)[O-])nc2O1 [IA7, (R)-2-{4-[4-(2,4-difluorophenyl)-1H-1,2,3-triazol-1-yl]phenoxymethyl}-2,3-dihydro-2-methyl-6-nitroimidazo[2,1-b]oxazole]	2 (≈ 4.4 µM)	>40
Cc1ccc(-c2cn(-c3ccc(OC[C@@]4(C)Cn5cc([N+](=O)[O-])nc5O4)cc3)nn2)cc1 [IA8, (R)-2-{4-[4-(4-methylphenyl)-1H-1,2,3-triazol-1-yl]phenoxymethyl}-2,3-dihydro-2-methyl-6-nitroimidazo[2,1-b]oxazole]	1 (≈ 2.31 µM)	>40
CC(C)c1ccc(-c2cn(-c3ccc(OC[C@@]4(C)Cn5cc([N+](=O)[O-])nc5O4)cc3)nn2)cc1 [IA9, (R)-2-{4-[4-(4-isopropylphenyl)-1H-1,2,3-triazol-1-yl]phenoxymethyl}-2,3-dihydro-2-methyl-6-nitroimidazo[2,1-b]oxazole]	1 (≈ 2.17 µM)	>40
C[C@]1(COc2ccc(-n3cc(-c4cccc(F)c4)nn3)cc2)Cn2cc([N+](=O)[O-])nc2O1 [IA10, (R)-2-{4-[4-(3-fluorophenyl)-1H-1,2,3-triazol-1-yl]phenoxymethyl}-2,3-dihydro-2-methyl-6-nitroimidazo[2,1-b]oxazole]	2 (≈ 4.58 µM)	>40
CCCCCCCc1cn(-c2ccc(OC[C@@]3(C)Cn4cc([N+](=O)[O-])nc4O3)cc2)nn1 [IA16, (R)-2-{4-[4-heptyl-1H-1,2,3-triazol-1-yl]phenoxymethyl}-2,3-dihydro-2-methyl-6-nitroimidazo[2,1-b]oxazole]	4 (≈ 9.08 µM)	>40
C[C@]1(COc2cccc(-n3cc(-c4ccc(F)cc4)nn3)c2)Cn2cc([N+](=O)[O-])nc2O1 [IA17, (R)-2-{3-[4-(4-fluorophenyl)-1H-1,2,3-triazol-1-yl]phenoxymethyl}-2,3-dihydro-2-methyl-6-nitroimidazo[2,1-b]oxazole]	2 (≈ 4.58 µM)	>40
C[C@]1(COc2cccc(-n3cc(-c4ccc(C(F)(F)F)cc4)nn3)c2)Cn2cc([N+](=O)[O-])nc2O1 [IA18, (R)-2-{3-[4-(4-trifluoromethylphenyl)-1H-1,2,3-triazol-1-yl]phenoxymethyl}-2,3-dihydro-2-methyl-6-nitroimidazo[2,1-b]oxazole]	2 (≈ 4.11 µM)	>40
C[C@]1(COc2cccc(-n3cc(-c4ccc(OC(F)(F)F)cc4)nn3)c2)Cn2cc([N+](=O)[O-])nc2O1 [IA19, (R)-2-{3-[4-(4-trifluoromethoxyphenyl)-1H-1,2,3-triazol-1-yl]phenoxymethyl}-2,3-dihydro-2-methyl-6-nitroimidazo[2,1-b]oxazole]	4 (≈ 7.96 µM)	>40
C[C@]1(COc2cccc(-n3cc(-c4ccc(F)cc4F)nn3)c2)Cn2cc([N+](=O)[O-])nc2O1 [IA20, (R)-2-{3-[4-(2,4-difluorophenyl)-1H-1,2,3-triazol-1-yl]phenoxymethyl}-2,3-dihydro-2-methyl-6-nitroimidazo[2,1-b]oxazole]	4 (≈ 8.8 µM)	>40
C[C@]1(COc2ccccc2-n2cc(-c3ccc(F)cc3)nn2)Cn2cc([N+](=O)[O-])nc2O1 [IA21, (R)-2-{2-[4-(4-fluorophenyl)-1H-1,2,3-triazol-1-yl]phenoxymethyl}-2,3-dihydro-2-methyl-6-nitroimidazo[2,1-b]oxazole]	1 (≈ 2.29 µM)	>40

Reference: patent US9845330B2, “6-nitro-2,3-dihydroimidazo[2,1-b]oxazoles and a process for the preparation thereof” (priority 2013, dated 2017)
